# Test results published in US9901649B2, “Block copolymers for therapeutic drug delivery” (INTERNATIONAL BUSINESS MACHINES CORPORATION, priority 2016, dated 2018).
# Columns and labels:
# NCCFH-01 cells = assay: In vitro cytotoxicity, MTT assay; assay type: cell-based; conditions: 48 hours, 37° C., pH 7.4, read-out: half maximal inhibitory concentration IC50
# Experimental: BT-474 human breast cancer cell line was purchased from ATCC (Manassas, Va., U.S.A). Hereditary leiomyomastosis and renal cancer cells (NCCFH-01 cell line) was obtained from Dr. Min-Han Tan, Institute of Bioengineering and Nanotechnology, Singapore. Cells were cultured in RPMI-1640 medium containing 25 mM Hepes and L-Glutamine (Lonza, Singapore) supplemented with 10% fetal bovine serum (FBS), 100 U/mL penicillin and 100 μg/mL streptomycin at 37° C. in 5% CO2. 3-[4,5-Dimenthylthiazol-2-yl]-2,5-diphenyl tetrazolium bromide (MTT) was dissolved in phosphate-buffered saline (PBS, pH 7.4) with a concentration of 5 mg/mL, and the solution was filtered with a 0.22 micrometer filter to remove blue formazan crystals prior to usage.
# Cytotoxicity of free DOX, DOX-loaded particles, and blank particles was determined through MTT assay. BT-474 cells and NCCFH-01 cells were seeded into 96-well plates at a density of 5×10^3 cells per well and incubated overnight in 100 microliters of RPMI-1640 containing 25 mM Hepes and L-Glutamine, supplemented with 10% FBS and 5% penicillin-streptomycin at 37 C, 5% CO2. […] After gentle agitation for 15 minutes, the absorbance of formazan crystals was taken to be that at 550 nm subtracted by that at 690 nm (TECAN, Switzerland). Cell viability was expressed as a percentage of absorbance of the control cells.
# [1] = Mouse body weight change during the in vivo treatments; parameters: species or system female BALB/c nude mice; conditions: nude mice bearing BT-474 xenografts; DOX 5 mg/kg, tail vein injection at day 0, 3, 6 and 10
# Experimental: Female BALB/c nude mice were provided by Singapore Biological Research Center (BRC) at 6 weeks of age (20-22 g). All animal studies were adhered to protocols approved by the Singapore BRC's Institutional Animal Care and Use Committee. BT-474 cells (1×10^7) were suspended in 200 microliters of a solution containing Matrigel and PBS (volume ratio: 50/50) and subcutaneously injected into the right flank of female BALB/c nude mice. Estradiol pellet (0.72 mg/pellet, 60 days release) was subcutaneously administered into mice one day before the inoculation. Once the tumor volume reached about 200 mm^3 on the 14th day (recorded as day 0), the mice were randomly divided into 5 groups (7-8 animals per group): group 1 for 0.9% saline as control, group 2 for blank particles, group 3 for free DOX, group 4 for DOX-loaded particles LM-1, and group 5 for DOX-loaded particles LM-2. The dose of DOX in all formulations was 5 mg/kg. The formulations were given to mice via tail vein injection at day 0, 3, 6 and 10. At the predetermined time points, mice were weighed and tumor size was measured with a Vernier caliper. The tumor volume was calculated using the following formula: Tumor volume=length×width^2/2.
smiles,measurement,setting,value
"COc1cccc2c1C(=O)c1c(O)c3c(c(O)c1C2=O)C[C@@](O)(C(=O)CO)C[C@@H]3O[C@H]1C[C@H](N)[C@H](O)[C@H](C)O1 [DOX, Doxorubicin]",IC50,NCCFH-01 cells,12.7 µg/mL
same,body weight loss,[1],20%
